In PMC7470127, “Design, synthesis, and evaluation of 1, 4-benzodioxan-substituted chalcones as selective and reversible inhibitors of human monoamine oxidase B” (Journal of Enzyme Inhibition and Medicinal Chemistry, 2020):
Where two headings read alike, the source gives them in different places.

How the values were obtained:
[1] = molecular target: T1, hMAO-B (Homo sapiens, UniProt P27338); details: cited from earlier work
T1 sequence (P27338 1-520): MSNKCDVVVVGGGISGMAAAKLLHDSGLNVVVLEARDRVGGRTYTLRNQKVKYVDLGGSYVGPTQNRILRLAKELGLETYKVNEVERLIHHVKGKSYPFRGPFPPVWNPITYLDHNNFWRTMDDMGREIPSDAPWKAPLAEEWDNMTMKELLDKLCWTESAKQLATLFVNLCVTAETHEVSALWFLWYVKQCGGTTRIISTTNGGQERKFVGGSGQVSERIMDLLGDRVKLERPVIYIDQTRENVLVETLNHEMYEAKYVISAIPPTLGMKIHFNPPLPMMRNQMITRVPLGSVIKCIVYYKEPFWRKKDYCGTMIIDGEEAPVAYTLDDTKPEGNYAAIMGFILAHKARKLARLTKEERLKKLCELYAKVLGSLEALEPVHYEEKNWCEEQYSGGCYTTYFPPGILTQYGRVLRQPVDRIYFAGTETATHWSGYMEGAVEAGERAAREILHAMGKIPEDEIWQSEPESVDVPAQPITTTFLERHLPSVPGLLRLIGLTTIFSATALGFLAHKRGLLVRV

[2] = molecular target: T1, hMAO-B; experiment: Reversibility study: time-dependent inhibition of hMAO-B; assay type: biochemical; details: for IC80: compounds used at the concentration of their IC80; for time after which the residual activity of hMAO-B began to increase: inhibitor at IC80; for reversibility of hMAO-B inhibition: inhibitor at IC80, activity followed for 120 min
Method: Control experiments without inhibitors were run simultaneously. The enzymatic activity was determined as described above. The percentage of enzyme activity was plotted against the incubation time to determine time-dependent enzyme inhibition.

[3] = molecular target: T1, hMAO-B; experiment: hMAO inhibition assay (Amplex Red fluorescence), hMAO-B, benzylamine substrate; assay type: biochemical; details: for Selectivity Index (SI): SI = IC50 (hMAO-A)/IC50 (hMAO-B); for fold higher inhibitory potency than 4: from IC50, versus compound 4; for inhibition at 1 µM: tested concentration 1 µM
Method: The hMAO inhibition assay was performed as previously described. […] The test compounds were dissolved in DMSO as stock solutions (10 mM) and diluted with sodium phosphate buffer (50 mM, pH 7.4) to the corresponding concentrations. […] The specific fluorescence emission was calculated after subtraction of the background activity. The background activity was determined from wells containing all components except the hMAO isoforms, which were replaced by a sodium phosphate buffer solution. The percentage inhibition was calculated by the following expression: (1 – IFi/IFc) × 100, in which IFi and IFc are the fluorescence intensities obtained for hMAO in the presence and absence of inhibitors after subtracting the respective background.

[4] = molecular target: T2, hMAO-A (Homo sapiens, UniProt P21397); experiment: hMAO inhibition assay (Amplex Red fluorescence), hMAO-A, p-tyramine substrate; assay type: biochemical; details: recombinant hMAO-A
T2 sequence (P21397 1-527): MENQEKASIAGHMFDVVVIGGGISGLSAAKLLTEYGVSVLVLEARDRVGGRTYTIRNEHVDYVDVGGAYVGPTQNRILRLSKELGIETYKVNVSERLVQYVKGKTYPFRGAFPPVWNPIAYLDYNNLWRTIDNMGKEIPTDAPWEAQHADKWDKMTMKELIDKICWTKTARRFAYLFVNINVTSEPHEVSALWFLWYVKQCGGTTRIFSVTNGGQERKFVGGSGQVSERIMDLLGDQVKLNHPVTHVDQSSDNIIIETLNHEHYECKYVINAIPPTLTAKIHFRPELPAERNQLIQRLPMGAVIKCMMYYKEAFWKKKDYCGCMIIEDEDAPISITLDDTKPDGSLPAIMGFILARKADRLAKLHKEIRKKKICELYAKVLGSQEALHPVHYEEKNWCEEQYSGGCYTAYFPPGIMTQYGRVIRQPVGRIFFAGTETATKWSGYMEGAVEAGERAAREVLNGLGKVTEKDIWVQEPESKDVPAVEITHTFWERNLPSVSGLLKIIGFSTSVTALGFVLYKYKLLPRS
Method: The hMAO inhibition assay was performed as previously described. Adequate amounts of recombinant hMAO-A/B were acquired and adjusted to 12.5 µg/mL or 75 µg/mL for hMAO-A or hMAO-B, respectively, with sodium phosphate buffer (50 mM, pH 7.4). The test compounds were dissolved in DMSO as stock solutions (10 mM) and diluted with sodium phosphate buffer (50 mM, pH 7.4) to the corresponding concentrations. Then the test compounds (20 µL) and hMAO (80 µL) were incubated for 15 min at 37 °C in a flat, black-bottomed 96-well microtest plate in the dark. The reaction was initiated by adding Amplex Red reagent (200 µM, final concentration), horseradish peroxidase (2 U/mL, final concentration), and 2 mM p-tyramine for hMAO-A or 2 mM benzylamine (final concetration) for hMAO-B and incubated at 37 °C for 20 min. Activity was quantified in a multi detection microplate fluorescence reader (SpectraMax M5, Molecular Devices, USA) based on the fluorescence generated (excitation, 545 nm; emission, 590 nm). The specific fluorescence emission was calculated after subtraction of the background activity. The background activity was determined from wells containing all components except the hMAO isoforms, which were replaced by a sodium phosphate buffer solution. The percentage inhibition was calculated by the following expression: (1 – IFi/IFc) × 100, in which IFi and IFc are the fluorescence intensities obtained for hMAO in the presence and absence of inhibitors after subtracting the respective background. […]

[5] = system: BV2 microglia cells; experiment: MTT assay, cytotoxicity; assay type: cell-based; details: 5 and 25 µM for 24 h
Method: The 3–(4, 5-dimethylthiazol-2-yl)-2,5-diphenyltetrazolium (MTT) assay was performed as previously described. BV2 Cells were plated at 5000 cells per well and allowed to grow at 37 °C overnight. Then the cells were treated with various concentrations of the tested compounds for 24 h at 37 °C in a humidified atmosphere with 5% CO2, 0.5% DMSO acted as the vehicle control. The cell culture medium was then removed, followed by the addition of fresh cell culture medium containing 5.0 g/L MTT (20 µL/per well) and incubation at 37 °C in a humidified, 5% CO2 atmosphere for 4 h. After this incubation period, the cell culture medium was removed and the formed formazan crystals dissolved in 100% DMSO. The absorbance was measured at 570 nm in a multi-well plate reader. The results are expressed as % relative cell viability compared to DMSO vehicle control.

[6] = molecular target: T1, hMAO-B; experiment: Enzyme kinetic study (Lineweaver–Burk plots); assay type: biochemical; details: benzylamine 1, 2, 4 and 8 mM
Method: To evaluate the mode of MAO-B inhibition, the representative compound was evaluated in substrate-dependent kinetic experiments performed as previously described. Sets of Lineweaver–Burk plots were generated. The reciprocal MAO-B activity was plotted against the reciprocal substrate concentration. […] The enzymatic reactions and measurements were performed using human MAO-B assay conditions as described above for the determination of IC50 values.

[7] = recombinant hMAO-B, read-out: hMAO-B IC50

Row | Compound | Selectivity Index (SI) [3] | IC50 [3, 7] [nM] | inhibition at 1 µM [3] [%] | melting point [°C] | IC50 [4] [nM] | also measured
1 | COc1ccc(C(=O)/C=C/c2ccc(Cl)cc2)c(O)c1 [Compound 5i] |  |  |  |  |  | inhibition mode of hMAO-B ([1]; ref [12]): irreversible inhibition
2 | C[C@H](NCc1ccc(OCc2cccc(F)c2)cc1)C(N)=O [safinamide, reference compound] |  |  |  |  |  | IC80 [2]: 60 nM; time after which the residual activity of hMAO-B began to increase [2]: 15 min; reversibility of hMAO-B inhibition [2]: reversible
3 | O=C(/C=C/c1ccc2c(c1)OCCO2)c1ccc(O)cc1O [Compound 10, (E)-3-(2,3-dihydrobenzo[b][1,4]dioxin-6-yl)-1–(2,4-dihydroxyphenyl)prop-2-en-1-one] |  |  | 69.5 | 169.5 to 170.8 | > 40000 | 
4 | C#CCN[C@@H]1CCc2ccccc21 [rasagiline, reference compound] |  |  |  |  |  | IC80 [2]: 200 nM
5 | O=C(/C=C/c1ccc2c(c1)OCCO2)c1ccc(F)c(Br)c1 [Compound 22, (E)-1-(3-bromo-4-fluorophenyl)-3-(2,3-dihydrobenzo[b][1,4]dioxin-6-yl)prop-2-en-1-one] |  |  | 95.6 |  | > 40000 | Cell viability of BV2 cells [5]: no considerable decrease in cellular viability; IC50 [3]: 26 ± 1 nM; mode of hMAO-B inhibition [6]: competitive; IC80 [2]: 190 nM; time after which the residual activity of hMAO-B began to increase [2]: 20 min; reversibility of hMAO-B inhibition [2]: reversible
6 | Brc1cccc(COc2ccc3c(c2)OCCO3)c1 [Compound 7c] |  |  |  |  |  | inhibition mode of hMAO-B ([1]; ref [17]): reversible inhibition
7 | Cc1ccc(C(=O)/C=C/c2ccc(F)c(Br)c2)s1 [Compound 4h] |  |  |  |  |  | inhibition mode of hMAO-B ([1]; ref [13]): reversible inhibition
8 | O=C(/C=C/c1ccc2c(c1)OCO2)c1cccc(Br)c1 [Compound 27, (E)-3-(benzo[d][1,3]dioxol-5-yl)-1–(3-bromophenyl)prop-2-en-1-one] | >143 | 280 ± 2 | 80.4 | 111.8 to 112.6 | > 40000 | 

More lines, main results first:

Row | Selectivity Index (SI) [3] | IC50 [3, 7] [nM] | inhibition at 1 µM [3] [%] | melting point [°C] | IC50 [4] [nM] | Compound | also measured
9 | >494 | 81 ± 4 | 92.6 | 70.3 to 72.2 | > 40000 | O=C(/C=C/c1ccc2c(c1)OCCO2)c1ccccc1Br [Compound 14, (E)-1-(2-bromophenyl)-3-(2,3-dihydrobenzo[b][1,4]dioxin-6-yl)prop-2-en-1-one] | fold higher inhibitory potency than 4 [3]: 1.8–4.1 fold
10 | >267 | 150 ± 7 | 86.3 | 196.8 to 198.5 | > 40000 | O=C(/C=C/c1ccc2c(c1)OCCO2)c1cccc(O)c1 [Compound 9, (E)-3–(2,3-dihydrobenzo[b][1,4]dioxin-6-yl)-1-(3-hydroxyphenyl)prop-2-en-1-one] | 
11 |  |  | 51.7 | 93.8 to 94.9 | > 40000 | COc1ccc(C(=O)/C=C/c2ccc3c(c2)OCCO3)cc1 [Compound 8, (E)-3–(2,3-dihydrobenzo[b][1,4]dioxin-6-yl)-1-(4-methoxyphenyl)prop-2-en-1-one] | 
12 |  |  | 68.1 | 136.7 to 138.2 | > 40000 | O=C(/C=C/c1ccc2c(c1)OCCO2)c1ccc(Br)cc1 [Compound 19, (E)-1–(4-bromophenyl)-3–(2,3-dihydrobenzo[b][1,4]dioxin-6-yl)prop-2-en-1-one] | 
13 | >174 | 230 ± 0.5 | 76.8 | 139 to 140.2 | > 40000 | O=C(/C=C/c1ccc2c(c1)OCCO2)c1ccc(C(F)(F)F)cc1 [Compound 21, (E)-3-(2,3-dihydrobenzo[b][1,4]dioxin-6-yl)-1-(4-(trifluoromethyl)phenyl)prop-2-en-1-one] | 
14 | >741 | 54 ± 6 | 92.4 | 67.5 to 69.4 | > 40000 | O=C(/C=C/c1ccc2c(c1)OCCO2)c1ccccc1Cl [Compound 13, (E)-1-(2-chlorophenyl)-3-(2,3-dihydrobenzo[b][1,4]dioxin-6-yl)prop-2-en-1-one] | fold higher inhibitory potency than 4 [3]: 1.8–4.1 fold
15 | >125 | 320 ± 50 | 78.4 | 136.2 to 137.3 | > 40000 | O=C(/C=C/c1ccc2c(c1)OCCO2)c1cc(Cl)ccc1O [Compound 25, (E)-1-(5-chloro-2-hydroxyphenyl)-3-(2,3-dihydrobenzo[b][1,4]dioxin-6-yl)prop-2-en-1-one] | 
16 |  |  | 62.3 | 155.7 to 156.1 | > 40000 | O=C(/C=C/c1ccc2c(c1)OCCO2)c1ccc(Cl)cc1O [Compound 26, (E)-1-(4-chloro-2-hydroxyphenyl)-3-(2,3-dihydrobenzo[b][1,4]dioxin-6-yl)prop-2-en-1-one] | 
17 |  |  | 22.4 | 110 to 111.1 | > 40000 | COc1ccc(C(=O)/C=C/c2ccc3c(c2)OCCO3)cc1OC [Compound 11, (E)-3–(2,3-dihydrobenzo[b][1,4]dioxin-6-yl)-1–(3,4-dimethoxyphenyl)prop-2-en-1-one] | 
18 | >588 | 68 ± 7 | 87.5 | 135.5 to 136.5 | > 40000 | O=C(/C=C/c1ccc2c(c1)OCCO2)c1ccc(F)cc1 [Compound 20, (E)-3-(2,3-dihydrobenzo[b][1,4]dioxin-6-yl)-1-(4-fluorophenyl)prop-2-en-1-one] | 
